Publication PMC12786457, “Studies on the Complexation of Platinum(II) by Some 4-Nitroisothiazoles and the Cytotoxic Activity of the Resulting Complexes” (Molecules, 2025)
“Also recorded” adds a separate entry of the source. Read-outs that look alike come from different tables or passages of the source. Each block holds one molecule with its values, some of them ahead of it.

Assays:
[1] = tested on: ES-2 (ovarian adenocarcinoma); experiment: SRB (sulforhodamine B) viability assay, ES-2; type: cell-based, human
Procedure: (§1) The cytotoxicity of the complexes C1–C5 was estimated by examining cell viability using the sulforhodamine B assay. […] However, due to the very poor solubility of the most polar complex C5 in acetone, its initial solution had to be prepared in polar N,N-dimethylacetamide (DMA) (see Section 3.7). Cisplatin was used as the reference drug. The results are presented as IC50 (50% inhibitory concentration), i.e., concentrations that reduce cell survival by 50%. The test was conducted on three cancer cell lines and one normal healthy cell line, namely, breast adenocarcinoma (MCF-7), ovarian adenocarcinoma (ES-2), lung adenocarcinoma (A549), and murine embryonic fibroblast (BALB/3T3).
(§2) Three solid tumor cell lines were used in this study: MCF-7 (breast adenocarcinoma), ES-2 (ovarian adenocarcinoma), and A549 (lung adenocarcinoma). The BALB/3T3 (mouse embryonic fibroblast) cell line was used as a comparative nonpathological tissue. All cell lines were purchased from the American Type Culture Collection (ATCC, Rockville, MD, USA). The preparation of cell cultures for cytotoxicity experiments is described in detail in the following article.
(§3) The initial solutions for subsequent dilutions in biological medium were prepared in a similar manner as described previously. […] The complex C5 was dissolved in the dimethylacetamide (DMA). All the initial solutions were prepared ex tempore and then were added to the culture medium 1:9 (v/v) to obtain a stock solution of 1 mg/mL.
(§4) The test was prepared and performed in the same manner as detailed in the following cited works.

[2] = TLC Rf as a measure of relative lipophilicity; type: physicochemical; conditions: silica gel TLC Al foils
Procedure: Measurement of the melting points (m.p.) of the obtained compounds was performed with the Büchi M560 melting point device (BÜCHI Labortechnik AG, CH-9230 Flawil/SG, Flawil, Switzerland) and was uncorrected. The ESI-MS (electrospray ionization mass spectroscopy) spectra were recorded with the compactTM Bruker Daltonics Electrospray Ionization Quadrupole Time-of-Flight (ESI-Q-TOF) spectrometer (Bruker Daltonics GmbH, Bremen, Germany). The ESI-MS measurements for new compounds were performed in both positive- and negative-ion mode in LC-MS-grade using LC-MS grade methanol as a solvent. ESI-MS spectral analysis and the simulation of the theoretical monoisotopic mass of detected ions were performed using Bruker Compass Data Analysis 4.2 software (Bruker Daltonics GmbH, Bremen, Germany). All ^1H and ^13C-NMR spectra were recorded on the following instruments: Bruker NMR AVANCE III™ 600 MHz spectrometer with Ascend™ technology magnet with a quadruple resonance NMR ‘inverse’ cryoprobe (Bruker Corporation, Billerica, MA, USA) and/or Bruker ARX-300 (300 MHz) spectrometer (Bruker Analytische Messtechnik GmbH, Rheinstetten, Germany). The NMR measurements of samples of the compounds were carried out at room temperature (20–25 °C) using 5 mm tubes in deuterated acetone-d6. NMR chemical shifts were referenced to the solvent signal, i.e., for ^1H-NMR: δ (quintet of residual acetone-d6) = 2.05 ppm and for ^13C-NMR: δ (septet of acetone-d6) = 29.84 ppm. The Nicolet iS50 FT-IR spectrophotometer (Thermo Fisher Scientific Inc., Waltham, MA, USA) was used to record the Attenuated Total Reflectance IR (ATR-FT-IR) spectra (at MIR range 4000–450 cm^−1). Recording of spectra was performed on the diamond crystal surface (32 scans, resolution: 1 cm^−1, measurement temperature: 20–25 °C) with ATR intensity correction in the Laboratory of Elemental Analysis and Structural Research, Faculty of Pharmacy, Wroclaw Medical University. A Fourier transform, Bruker VERTEX 70V vacuum spectrometer equipped with an air-cooled DTGS detector was used to obtain the Far-IR (far-infrared) spectra (below 500 cm^−1) of the Pt(II) complexes. The spectra measurements were conducted with the ATR accessory, such as a diamond ATR crystal, in the resolution of 1 cm^−1 with 64 scans in the Laboratory of Vibrational Spectroscopy of the Faculty of Chemistry at Wrocław University of Science and Technology. No ATR intensity correction was applied to Far-IR spectra. Omnic 9.3.30 and Omnic Specta 2.0 software (Thermo Fisher Scientific Inc.) was used to process and analyze spectra. A double beam U-2800 Spectrophotometer (Hitachi—Science & Technology, Tokyo, Japan) was used to record UV spectra of Pt-complexes (C1 and C2) and reaction rate measurements of the GSH complexes. Dioxane solutions of complexes were used in the following concentrations: c = 2 × 10^−5 M and 3 × 10^−5 M, respectively, for C1 and C2. Measurement of UV spectra was conducted in quartz cuvettes (path length = 10.0 mm) in the range 190–400 nm (sampling interval 1 nm, scan speed 200 nm/min). All UV experiments were performed in the Laboratory of Elemental Analysis and Structural Research, Faculty of Pharmacy, Wroclaw Medical University. Baselines were corrected with pure dioxane as the reference solvent. Thin-layer chromatography (TLC) was used to monitor the progress of the reaction course and determine the purity of the synthesized compounds. Silica gel on TLC Al foils with fluorescent indicator 254 nm (Sigma-Aldrich, Merck Group, Darmstadt, Germany) was used as the stationary phase and chloroform–acetone mixtures (volume ratios 9:1, 7:3, and 1:1) as the eluent. Detection of Pt(II) compounds in the chromatograms was performed using a 0.5% acetone solution of rubeanic acid (dithiooxamide), and organic impurities were detected by observing the plates under UV light at 250 nm. […]

[3] = tested on: BALB/3T3 (mouse embryonic fibroblast); experiment: SRB (sulforhodamine B) viability assay, normal cells BALB/3T3; type: cell-based; conditions: normoxia, read-out: IC50 ± SD, Normal Cells BALB/3T3, Normoxia
Procedure: as §1, §2, §3, §4

[4] = TLC Rf as a measure of relative lipophilicity; type: physicochemical; conditions: silica gel TLC Al foils; remark: listed apart in the source
[5] = tested on: A549 (lung adenocarcinoma); experiment: SRB (sulforhodamine B) viability assay, A549; type: cell-based, human; conditions: SRB assay
Procedure: as §1, §2, §3, §4

[6] = tested on: MCF-7 (breast adenocarcinoma); experiment: SRB (sulforhodamine B) viability assay, MCF-7; type: cell-based, human; conditions: SRB assay
Procedure: as §1, §2, §3, §4

[7] = Solubility in solvents (qualitative); type: physicochemical
[8] = cited from earlier work
[9] = hypoxia, read-out: IC50 ± SD, ES-2 (Ovarian), Hypoxia
[10] = normoxia, read-out: IC50 ± SD, ES-2 (Ovarian), Normoxia
[11] = normoxia, read-out: IC50 ± SD, A549 (Lung), Normoxia
[12] = hypoxia, read-out: IC50 ± SD, MCF-7 (Breast), Hypoxia
[13] = normoxia, read-out: IC50 ± SD, MCF-7 (Breast), Normoxia
[14] = earlier work of the authors, same methodology

- IC50 [1, 9]: 50.1 ± 7.97 µM
- IC50 [1, 10]: 62.5 ± 22.7 µM
- Rf, Eluent: Chlorofom:Acetone Ratio 1:1 Vol. [2]: 0.655
- Rf, Eluent: Chlorofom:Acetone Ratio 9:1 Vol. [2]: 0.005
- Rf, Eluent: Chlorofom:Acetone Ratio 9:7 Vol. [4]: 0.215
- IC50 ± SD, A549 (Lung), Hypoxia ([5]; hypoxia): inactive
- IC50 [5, 11]: 66.2 ± 1.15 µM
- IC50 [6, 12]: 67.3 ± 28.3 µM
- IC50 [6, 13]: 57.6 ± 7.69 µM
- solubility in acetonitrile ([7]; acetonitrile, relative to acetone): slightly better
- solubility in chloroform ([7]; chloroform): practically insoluble
Molecule: cis-Dichlorobis(3-methyl-4-nitroisothiazole-5-carboxamide)platinum(II) [C5]
- IC50 [3]: 64.2 ± 15.8 µM
- solubility in acetone ([7]; acetone): very poorly soluble; also recorded: weakly soluble

Molecule: Cn1cc([N+](=O)[O-])cn1.Cn1cc([N+](=O)[O-])cn1.[Cl][Pt][Cl] [trans-Pt(NO2Pyraz)2Cl2, trans-[PtCl2 (1-methyl-4-nitropyrazole)2]]
- Half-time, t1/2 of reaction with GSH [8, 14]: 13 min [17]

Molecule: O=C(O)C(=O)O.[NH-][C@@H]1CCCC[C@H]1[NH-].[Pt+2] [Oxaliplatin]
- Half-time, t1/2 of reaction with GSH ([8]; literature value, similar conditions): 44 min [35]

Molecule: Cc1noc(C)c1[N+](=O)[O-].Cc1noc(C)c1[N+](=O)[O-].[Cl][Pt@SP1][Cl] [cis-Pt(NO2Isoxazol)2Cl2]
- Half-time, t1/2 of reaction with GSH [8, 14]: 42 min [18]

Molecule: Cn1cc([N+](=O)[O-])cn1.Cn1cc([N+](=O)[O-])cn1.[Cl][Pt@SP1][Cl] [cis-Pt(NO2Pyraz)2Cl2]
- Half-time, t1/2 of reaction with GSH [8, 14]: 83 min [17]

Molecule: Cc1noc(C)c1[N+](=O)[O-].Cc1noc(C)c1[N+](=O)[O-].[Cl][Pt][Cl] [trans-Pt(NO2Isoxazol)2Cl2, trans-dichlorobis(3,5-dimethyl-4-nitro-isoxazole)platinum(II)]
- Half-time, t1/2 of reaction with GSH [8, 14]: 18 min [18]

Molecule: N.N.O=C([O-])C1(C(=O)[O-])CCC1.[Pt+2] [Carboplatin]
- Half-time, t1/2 of reaction with GSH ([8]; literature value): 16.7–32.7 h [35]

Molecule: N.N.[Cl][Pt][Cl] [Cisplatin, cis-diamminodichloroplatinum, reference compound]
- IC50 [1, 9]: 6.28 ± 2.19 µM
- IC50 [1, 10]: 9.85 ± 4.68 µM
- IC50 [3]: 8.1 ± 5.61 µM
- IC50 ([5]; hypoxia, read-out: IC50 ± SD, A549 (Lung), Hypoxia): 14.8 ± 1.93 µM
- IC50 [5, 11]: 12.5 ± 1.64 µM
- IC50 [6, 12]: 9.74 ± 5.84 µM
- IC50 [6, 13]: 14.4 ± 1.4 µM

Molecule: N.N.[Cl][Pt+2][Cl] [Transplatin]
- Half-time, t1/2 of reaction with GSH ([8]; literature value): 4 min [36]
